As usually defined, the inhibition is the share of the control response that was lost under treatment. By IC50 is commonly meant the concentration that gives 50% inhibition. A lower IC50 goes with greater potency in that assay.

This is an account of results in ChEMBL document CHEMBL5352412, “Discovery of 1,2-diphenylethene derivatives as human DNA topoisomerase II catalytic inhibitors and antitumor agents” (Eur J Med Chem, 2022).

Activity calls are given as the source filed them. The rule behind the calls is not given here. Where only a bound is given, the exact number is not on record here.

The target in data set [1] is T1, DNA topoisomerase 2-alpha (Homo sapiens, UniProt P11388). The data set can be described thus: Inhibition of human topoisomerase 2-alpha assessed as reduction in relaxation of pBR322 DNA at 100 uM measured after 30 mins by agarose gel electrophoresis method relative to control.
T1 sequence (P11388 whole entry): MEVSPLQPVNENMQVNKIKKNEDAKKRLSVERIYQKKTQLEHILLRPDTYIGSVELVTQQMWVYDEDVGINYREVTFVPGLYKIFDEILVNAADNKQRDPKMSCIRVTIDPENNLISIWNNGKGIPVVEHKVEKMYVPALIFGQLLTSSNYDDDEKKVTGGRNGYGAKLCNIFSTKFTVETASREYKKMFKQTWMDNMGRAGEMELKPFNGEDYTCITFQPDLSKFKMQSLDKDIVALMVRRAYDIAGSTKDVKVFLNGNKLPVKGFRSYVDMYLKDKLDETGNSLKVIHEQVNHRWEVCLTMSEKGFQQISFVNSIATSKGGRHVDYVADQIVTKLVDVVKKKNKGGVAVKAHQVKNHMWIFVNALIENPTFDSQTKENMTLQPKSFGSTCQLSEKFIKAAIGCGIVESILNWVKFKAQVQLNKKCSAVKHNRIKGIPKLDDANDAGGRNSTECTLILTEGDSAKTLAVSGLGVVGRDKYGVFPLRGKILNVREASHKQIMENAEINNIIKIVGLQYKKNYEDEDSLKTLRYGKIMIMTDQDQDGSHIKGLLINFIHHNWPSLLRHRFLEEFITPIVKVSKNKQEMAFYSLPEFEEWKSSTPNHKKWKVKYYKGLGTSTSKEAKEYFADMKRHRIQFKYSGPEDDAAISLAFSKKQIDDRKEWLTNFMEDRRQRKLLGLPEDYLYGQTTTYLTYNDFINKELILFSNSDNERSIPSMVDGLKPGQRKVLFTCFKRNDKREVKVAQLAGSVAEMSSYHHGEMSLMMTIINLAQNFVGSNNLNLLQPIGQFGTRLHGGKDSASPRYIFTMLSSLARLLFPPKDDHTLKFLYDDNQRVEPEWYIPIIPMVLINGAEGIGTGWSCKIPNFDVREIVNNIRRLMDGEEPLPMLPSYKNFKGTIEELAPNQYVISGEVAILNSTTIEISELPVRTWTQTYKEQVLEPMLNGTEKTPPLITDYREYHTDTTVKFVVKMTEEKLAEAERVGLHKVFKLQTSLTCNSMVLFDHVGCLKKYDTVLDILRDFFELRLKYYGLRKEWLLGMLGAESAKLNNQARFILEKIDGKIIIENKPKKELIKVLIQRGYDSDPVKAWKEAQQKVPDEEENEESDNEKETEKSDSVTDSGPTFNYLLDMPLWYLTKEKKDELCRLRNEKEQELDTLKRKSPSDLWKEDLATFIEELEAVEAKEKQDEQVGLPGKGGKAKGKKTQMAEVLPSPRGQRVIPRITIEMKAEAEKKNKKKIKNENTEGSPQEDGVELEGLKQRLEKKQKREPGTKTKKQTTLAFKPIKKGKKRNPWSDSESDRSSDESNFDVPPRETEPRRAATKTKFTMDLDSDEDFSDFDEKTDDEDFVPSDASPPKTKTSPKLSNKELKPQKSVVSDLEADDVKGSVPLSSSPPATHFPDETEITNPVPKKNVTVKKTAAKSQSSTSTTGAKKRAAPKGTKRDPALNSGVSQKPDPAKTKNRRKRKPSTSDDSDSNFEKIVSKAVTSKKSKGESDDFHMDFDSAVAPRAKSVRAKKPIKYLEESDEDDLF
The test system of the next data set is MDA-MB-231. The data set can be described thus: Antiproliferative activity against human MDA-MB-231 cells incubated for 72 hrs by CCK8 assay. The following applies: Homo sapiens, MDA-MB-231, 72 h. It counts as functional, cell-based. (Tetrazolium dyes change colour on reduction, which living cells bring about.)
For data set [2], the species on record is Homo sapiens. The data set can be described thus: Selectivity index, ratio of IC50 for human CCL-226 cells to IC50 for human MDA-MB-231 cells.
Data set [3] in a line: Selectivity index, ratio of IC50 for human BEAS-2B cells to IC50 for human PC-3 cells. The format is toxicity. The settings on record: BEAS-2B cells versus PC-3 cells, read-out: Ratio IC50.
The target in data set [4] is T1, DNA topoisomerase 2-alpha. Put plainly: Poison activity at human topoisomerase 2-alpha assessed as linear DNA formation at 100 to 200 microM. The settings on record: dose 100-200 µM.
A short description of data set [5]: Antiproliferative activity against human CCL-226 cells incubated for 72 hrs by CCK8 assay. It counts as toxicity, cell-based.
Data set [6] can be described thus: Toxicity in C57BL/6J mouse assessed as change in body weight at 500 mg/kg administered via gavage twice at day 1 and measured for 7 days. The format is organism-based. The following applies: in vivo, po, 168 h, time 7 day.
Data set [7] in a line: Selectivity index, ratio of IC50 for human HL-7702 cells to IC50 for human HeLa cells. It counts as toxicity. The following applies: HL-7702 cells versus HeLa cells, read-out: Ratio IC50.
The species entered for data set [8] is Homo sapiens. The data set can be described thus: Selectivity index, ratio of IC50 for human CCL-226 cells to IC50 for human HeLa cells.
Data set [9] can be described thus: Selectivity index, ratio of IC50 for human HL-7702 cells to IC50 for human A549 cells. It counts as toxicity. The settings on record: HL-7702 cells versus A549 cells, read-out: Ratio IC50.
Data set [10] in a line: Antiproliferative activity against human BEAS-2B cells incubated for 72 hrs by CCK8 assay. It counts as toxicity, cell-based.
A short description of data set [11]: Selectivity index, ratio of IC50 for human BEAS-2B cells to IC50 for human HCT-116 cells. The settings on record: BEAS-2B cells versus HCT-116 cells, read-out: Ratio IC50. It counts as toxicity.
The target of data set [12] is T1, DNA topoisomerase 2-alpha. The data set can be described thus: Inhibition of human topoisomerase 2-alpha assessed as reduction in relaxation of pBR322 DNA at 25 uM measured after 30 mins by agarose gel electrophoresis method relative to control.
The subject of a further data set is HepG2. The data set can be described thus: Induction of apoptosis in human HepG2 cells assessed as late apoptotic cells at 0.5 uM incubated for 24 hrs by annexin-V FITC and PI staining based flow cytometry analysis (reference value: 2.3%). It counts as functional. On the technique in general: In flow cytometry, cells or beads pass a laser one at a time.
For a further data set, the system named is PC-3. The data set can be described thus: Antiproliferative activity against human PC-3 cells incubated for 72 hrs by CCK8 assay. The format is functional, cell-based. The following applies: PC-3, 72 h.

`O=C(CCc1ccccc1)Nc1ccc(-c2ccc3cc(O)ccc3c2)cc1`: the inhibition in data set [1] was 82.1%; in data set [12], 84.6%. Further, the IC50 in the data set with MDA-MB-231 came to 200 nM; with PC-3 it was 300 nM. The Ratio IC50 in the data set listed under Homo sapiens [2] and in the data set filed under Homo sapiens [8] was greater than 52.1 each time. Further, the selectivity ratio in data set [3], in data set [7], in data set [9] and in [11] was greater than 52.1 in each case. Also, the result in [4] was inactive. Besides, the IC50 at 72 h in data set [5] was greater than 50000 nM; in data set [10] it was 31900 nM. Also, the Activity result in data set [6] is given as “Non-Toxic”; with HepG2, 13.4%.
